Data set [1] has as its system EBOV-GFP (recombinant Ebolavirus encoding a GFP reporter gene). As to the kind of experiment: microbe, parasite or virus in culture. The data set is classed as cell-based. As to conditions: for IC50: Orthoebolavirus.
Data set [2] in a line: Cytotoxicity, CellTiter-Glo Luminescent Cell Viability Assay. The conditions noted are these: human, Huh7 cells. In general terms: In ATP-based viability assays light output follows the ATP content of the culture.

The record followed here is patent US11571416B2, “Amodiaquine analogs and methods of uses thereof” (priority 2017, dated 2023).

A word on the IC50: it is the concentration at which inhibition is half-maximal. Broadly, the CC50 is the concentration giving 50% cytotoxicity. Higher therefore signals better tolerance by the cells.

Regarding `C#CCN(CC#C)Cc1cc(Nc2ccnc3cc(Cl)ccc23)ccc1O` [Compound 1, 4-(7-chloroquinolin-4-ylamino)-2-bis(2-propyne-1-yl)aminomethylphenol], the “antiviral activity / potency in words” value in data set [1] was “reduced antiviral activity”. In addition, in data set [1] (Huh-7, 24 h), the IC50 is 5780 ± 1490 nM. With `CCN(CC)Cc1cc(Nc2ccnc3cc(C(F)(F)F)ccc23)ccc1O` [Compound 2], in data set [1] (Huh-7, 24 h), the IC50 is 5870 ± 1460 nM. Take `CN(Cc1cc(Nc2ccnc3cc(Cl)ccc23)ccc1O)c1ccccc1` [Compound 3]: the “antiviral activity / potency in words” value in data set [1] is given as “reduced antiviral activity”. The IC50 in data set [1] (Huh-7, 24 h) turned out to be 6390 ± 930 nM.

With `CCN(CC)Cc1cc(Nc2ccnc3cc(Br)ccc23)ccc1O` [Compound 4, 4-(7-bromoquinolin-4-ylamino)-2-diethylamino-methylphenol], the “fold potency relative to amodiaquine” value in data set [1] came to 1.4 fold. Further, the IC50 in data set [1] (Huh-7, 24 h) stood at 1550 ± 140 nM. Regarding `CCN(CC)Cc1cc(Nc2ccnc3cc(F)ccc23)ccc1O` [Compound 5, 4-(7-fluoroquinolin-4-ylamino)-2-diethylaminomethylphenol], the “antiviral activity / potency in words” value in data set [1] was “weaker than amiodiaquine”. Moreover, the IC50 in data set [1] (Huh-7, 24 h) worked out at 2780 ± 280 nM.

For the molecule `CCN(CC)Cc1cc(Nc2c3ccccc3nc3ccccc23)ccc1O` [Compound 6, 4-(9-acridinylamino)-2-[(diethylamino)methyl]phenol], the IC50 in data set [1] (Huh-7, 24 h) is 1640 ± 220 nM. As for `CC(C)N(C)Cc1cc(Nc2ccnc3cc(Cl)ccc23)ccc1O` [Compound 8, 4-(7-chloroquinolin-4-ylamino)-2-(isopropylmethylamino)methylphenol], the Selectivity index in data set [1] came out at 27. In addition, the IC50 in data set [1] (Huh-7) worked out at 1460 nM; in data set [1] (Huh-7, 24 h), 1460 ± 140 nM. Besides, half-maximal cytotoxicity in data set [2] (CC50 at 24 h) was put at 39200 nM. For `CC(C)(C)NCc1cc(Nc2ccnc3cc(Cl)ccc23)ccc1O` [Compound 9, 4-(7-chloroquinolin-4-ylamino)-2-tert-butylaminomethylphenol] the same measures were 22, 1210 nM, 1210 ± 90 nM and 26100 nM. `CN(C)Cc1cc(Nc2ccnc3cc(Cl)ccc23)ccc1O` [Compound 10, 4-(7-chloroquinolin-4-ylamino)-2-dimethylaminomethylphenol]: the IC50 in data set [1] (Huh-7, 24 h) turned out to be 2140 ± 210 nM. Turning to `CCN(CC)Cc1cc(Nc2ccnc3ccccc23)ccc1O` [Compound 12, 2-[(diethylamino)methyl]-4-(quinolin-4-ylamino)phenol], in data set [1] (Huh-7, 24 h), the IC50 was 2140 ± 180 nM. Regarding `CN1CCN(Cc2cc(Nc3ccnc4cc(Cl)ccc34)ccc2O)CC1` [Compound 13, 4-(7-chloroquinolin-4-ylamino)-2-(4-methyl-1-piperazinyl)methylphenol], the “antiviral activity / potency in words” value in data set [1] is reported as “did not decrease potency”. For the same molecule, in data set [1] (Huh-7, 24 h), the IC50 is 1680 ± 190 nM. As for `CCN(C)Cc1cc(Nc2ccnc3cc(Cl)ccc23)ccc1O` [Compound 16, 4-(7-chloroquinolin-4-ylamino)-2-(ethylmethylamino)methylphenol], the IC50 in data set [1] (Huh-7, 24 h) came out at 2080 ± 220 nM. As for `CCN(CCO)Cc1cc(Nc2ccnc3cc(Cl)ccc23)ccc1O` [Compound 17, 4-(7-chloroquinolin-4-ylamino)-2-[ethyl(2-hydroxyethyl)amino]methylphenol], the “antiviral activity / potency in words” value in data set [1] is recorded as “did not decrease potency”. The IC50 in data set [1] (Huh-7, 24 h) is 1770 ± 180 nM. Turning to `Oc1ccc(Nc2ccnc3cc(Cl)ccc23)cc1CN1CCCC(O)C1` (stereo not shown) [Compound 19, 4-(7-chloroquinolin-4-ylamino)-2-(3-hydroxy-1-piperidinyl)methylphenol], the “antiviral activity / potency in words” value in data set [1] was “did not decrease potency”. Besides, in data set [1] (Huh-7, 24 h), the IC50 worked out at 1800 ± 280 nM. On to `Oc1ccc(Nc2ccnc3cc(Cl)ccc23)cc1CN1CC[C@@H](O)C1` [Compound 22], for which the “antiviral activity / potency in words” value in data set [1] was “did not decrease potency”. In data set [1] (Huh-7, 24 h), the IC50 was determined as 1730 ± 90 nM. In the case of `Oc1ccc(Nc2ccnc3cc(Cl)ccc23)cc1CN1CCOCC1` [Compound 24], the IC50 in data set [1] (Huh-7, 24 h) amounted to 6030 ± 410 nM. With `C=CCN(CC=C)Cc1cc(Nc2ccnc3cc(Cl)ccc23)ccc1O` [Compound 27, 4-(7-chloroquinolin-4-ylamino)-2-bis(2-propen-1-yl)aminomethylphenol], the IC50 in data set [1] (Huh-7, 24 h) is 2320 ± 320 nM.
